By pIC50 is commonly meant −log10 of the IC50, conventionally taken in molar units.

pIC50: −log10 of the molar value.

The results in this text go back to patent US11492347B2 (ENYO PHARMA, priority 2018, dated 2022).

Assay [1] has as its system H1N1 (influenza A/New Caledonia/20/99). Briefly: microbe, parasite or virus in culture. It counts as cell-based. Particulars: H1N1, A549, 48 h.
The test system of another assay is West Nile Virus. Briefly: Antiviral effect in infected Huh7 cells, plaque assay on VeroE6. It is filed as cell-based, WNV stain New-York 99. Particulars: Huh-7, MOI of 0,1 pfu per cell, supernatants 48 h post infection. On the procedure:
Compound #18 was tested on other viruses. The NEET protein modulators are capable of inhibiting other viruses such as West Nile Virus, Dengue and Zika with a high efficiency.
Assays were performed with the following strains/serotypes: • DENV serotype 2 strain New Guinea C • ZIKV strain MR766 • WNV stain New-York 99
1×10^5 Huh7 cells were infected with DENV, ZIKV, or WNV at a MOI of 0,1 pfu per cell in presence of the test compound. Two hours post-infection the inoculum was removed and cells washed twice with PBS 1×. Fresh medium containing the test compound was added. Supernatants were harvested 48 h post infection, filtered through a 0.45 μm pore membrane and directly used for plaque assays.
VeroE6 cells were infected with serial dilutions of virus supernatants. Two hours post-infection inoculum was replaced by serum-free MEM medium (Gibco, Life Technologies) containing 1.5% carboxymethyl cellulose (Sigma-Aldrich). At different days post infection (day 3 for WNV, day 4 for ZIKV, day 7 for DENV) cells were fixed by addition of formaldehyde to a final concentration of 5%. Cells were stained with crystal violet solution (1% crystal violet, 10% ethanol in H2O) for 30 min at room temperature and extensively rinsed with H2O. Infectious titers were calculated considering the corresponding dilution factor.

Another assay has as its system Dengue. Briefly: microbe, parasite or virus in culture. It is filed as cell-based, DENV serotype 2 strain New Guinea C. As to conditions: Huh-7, 48 h.
A further assay relates to Zika. Briefly: Antiviral effect in infected Huh7 cells, plaque assay on VeroE6. It is filed as cell-based, ZIKV strain MR766. Particulars: Zika virus, Huh-7, MOI of 0,1 pfu per cell, supernatants 48 h post infection.
In assay [2] the target is T1, CISD1 Gene Product (mitoNEET) (Homo sapiens, UniProt Q9NZ45).
T1 sequence (Q9NZ45 33-108 limits assumed): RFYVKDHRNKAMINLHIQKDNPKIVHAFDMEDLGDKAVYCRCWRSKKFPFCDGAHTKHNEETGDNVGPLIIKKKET
Briefly: Stability of Fe-S cluster binding of purified NEET protein (absorbance 458 nm). It counts as biochemical. On the procedure:
(§1) The modulator effect on the NEET proteins encoded by human CISD1, CISD2, and CISD3 genes by the compounds of the invention has been tested and is reported below. Particularly, the biochemical function of the NEET proteins is measured by the stability of Fe—S cluster binding of the purified NEET proteins.
(§2) The Fe—S cluster binding capacity of NEET proteins is known to be coordinated by four amino-acids in a stretch of 16 (three Cysteine and one Histidine). As the lability of the Fe—S cluster of NEET proteins is sensitive to the environment, cluster stability measurements are one of the measures of interactions of NEET proteins with small molecules and compounds. NEET protein/2Fe-2S cluster stability can be assessed by monitoring the decay in absorbance of its characteristic 458-nm peak (characteristic of the oxidized 2Fe-2S cluster) over time. Each NEET protein (mitoNEET, NAF-1 and Miner 2) was tested for its Fe—S binding in the absence or presence of a compound according to the invention (see table 4 below). The rate of cluster release (time in minutes to achieve 50% loss of bound Fe—S cluster) was compared for each NEET protein in the presence of one of the compounds of the invention (in a 1:3 protein:compound molar ratio) relative to each protein alone.
(§3) At pH 6, all the three NEET proteins (mitoNEET, NAF-1 and Miner 2) have a characteristic rate of loss of the bound Fe—S cluster that can be measured by the decrease of absorbance at wavelength 458 nm over time, using a spectrophotometer. Thus, Bis-Tris buffer (100 mM Bis-Tris pH6, 100 mM Nacl) was used at pH 6 to dilute either DMSO (Blank sample: Bis-Tris Buffer pH 6, 66 μM DMSO), DMSO and one of the three NEET proteins (Control sample: Bis-Tris Buffer pH 6, 66 μM DMSO, 20 μM purified NEET protein) or DMSO, one of the three NEET proteins and a compound of the invention (Test sample: Bis-Tris Buffer pH 6, 66 μM DMSO, 20 μM purified NEET protein, 60 μM compound of the invention).
(§4) A reaction mix containing DMSO diluted in the Bis-Tris Buffer with or without a compound of the invention was prepared. The purified NEET protein was the last component added to the reaction mix which was then aliquoted into 4 replicates in 96 wells plates. The absorbance at wavelength 458 nm was taken at 5 minutes intervals at 37° C. with a spectrofluorimeter. The assay run time for CISD2 gene product (NAF-1) was 500 minutes and 180 minutes for both the CISD1gene product (mitoNEET) and the CISD3 gene product (Miner2).
(§5) In addition to time monitoring, residual bound Fe—S cluster to NEET protein was measured at the final point of the spectrometry assay for each Test sample and compared to the Control sample data (in parenthesis table 4). This residual binding is measured by the differential percentage between the absorbance 458 nm at time zero and the absorbance 458 nm at the end of the experiment (i.e. respectively 500 or 180 minutes as described here above), showing the percentage of NEET protein still able to bind a Fe—S cluster.
(§6) Analysis of the absorbance enables the time for which 50% loss of bound Fe—S cluster is reached (i.e. a 50% absorbance decrease at 458 nm) for each Test sample and each Control sample (in parenthesis table 4) to be determined. The data are then compared to determine whether the compound of the invention stabilizes or destabilizes the NEET protein/Fe—S cluster binding.

For assay [3], the target named is T2, CISD2 Gene Product (NAF-1) (Homo sapiens, UniProt Q8N5K1).
T2 sequence (Q8N5K1 57-135 limits assumed): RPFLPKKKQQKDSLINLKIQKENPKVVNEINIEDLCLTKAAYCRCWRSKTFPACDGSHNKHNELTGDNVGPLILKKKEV
The assay is described as above. It counts as biochemical. As to conditions: NAF-1 20 μM, compound 60 μM. On the procedure: as §1, §2, §3, §4, §5, §6

In assay [4] the target is T3, CISD3 Gene Product (Miner2) (Homo sapiens, UniProt P0C7P0).
T3 sequence (P0C7P0 15-127): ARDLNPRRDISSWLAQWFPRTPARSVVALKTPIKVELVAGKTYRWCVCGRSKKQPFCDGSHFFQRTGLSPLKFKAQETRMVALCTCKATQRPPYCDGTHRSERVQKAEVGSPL
Described as above. It counts as biochemical. On the procedure:
as §1, §2, §3, §4, §5, §6

For another assay, the system named is LXFL 1121. Briefly: Cytotoxicity, propidium iodide based monolayer assay. As to conditions: 96 h; LXFL 1121 lung large cell carcinoma, four days of treatment, T/C=50%; read-out: Absolute IC50. On the procedure:
(§7) The cytotoxicity was tested for compounds of the invention on five different cell-lines, namely LXFL 1121, MAXF 401, MMXF L-636, PRXF PC-3M and UXF 1138 which are respectively lung large cell carcinoma, breast adeno carcinoma, multiple myeloma, prostate adeno carcinoma and uterine sarcoma.
(§8) A working stock solution of the test compounds was prepared in DMSO at a concentration of 33 mM or 8.25 mM, and small aliquots were stored at −20° C. On each day of an experiment, a frozen aliquot of the working stock solution was thawed and stored at room temperature prior to and during treatment.
(§9) All liquid handling steps were performed using the Tecan Freedom EVO 200 platform. First, serial 2-fold dilutions of the 33 mM DMSO working stock solution were done in DMSO. The DMSO dilutions were then diluted 1:22 into cell culture medium in an intermediate dilution plate. Finally, 10 μl taken from the intermediate dilution plate were transferred to 140 μl/well of the final assay plate. Thus, the DMSO serial dilutions were diluted 1:330 with cell culture medium, and the DMSO concentration in the assay was 0.3% v/v.
Cell lines were routinely passaged once or twice weekly and maintained in culture for up to 20 passages. […]
A modified propidium iodide (PI) based monolayer assay was used to assess the anti-cancer activity of the compounds. Briefly, cells were harvested from exponential phase cultures, counted and plated in 96 well flat-bottom microtiter plates at a cell density of 4,000 to 40,000 cells/well dependent on the cell line's growth rate. […] After an incubation period of 1-2 hours at room temperature, fluorescence (FU) was measured using the Enspire Multimode Plate Reader (excitation λ=530 nm, emission k=620 nm) to quantify the amount of attached viable cells.
Drug effects were expressed in terms of the percentage of the fluorescence signal, obtained by comparison of the mean signal in the treated wells with the mean signal of the untreated controls (expressed by the test-versus-control value, T/C−value [%]): […]

The next assay deals with MAXF 401. Described as above. It counts as cell-based. As to conditions: Homo sapiens, MAXF401, 96 h; MAXF 401 breast adeno carcinoma, four days of treatment, T/C=50%; read-out: Absolute IC50. On the procedure: as §7, §8, §9
(§10) Cell lines were routinely passaged once or twice weekly and maintained in culture for up to 20 passages. Most cell lines were grown at 37° C. in a humidified atmosphere with 5% CO2 in RPMI 1640 medium (25 mM HEPES, with L-glutamine, #FG1385, Biochrom, Berlin, Germany) supplemented with 10% (v/v) fetal calf serum (Sigma, Taufkirchen, Germany) and 0.05 mg/mL gentamicin (Life Technologies, Karlsruhe, Germany).
(§11) A modified propidium iodide (PI) based monolayer assay was used to assess the anti-cancer activity of the compounds. Briefly, cells were harvested from exponential phase cultures, counted and plated in 96 well flat-bottom microtiter plates at a cell density of 4,000 to 40,000 cells/well dependent on the cell line's growth rate. The individual seeding density for each cell line ensure exponential growth conditions over the whole or at least the bigger part of the treatment period. After a 24 h recovery period, to allow the cells to resume exponential growth, 10 μl of culture medium (6 control wells/cell line/plate) or of culture medium with test compounds were added. Compounds were applied at ten concentrations in 2-fold increments in duplicates up to 25 μM or 100 μM and treatment continued for four days. After four days of treatment, cells were next washed with 200 μl PBS to remove dead cells and debris, then 200 μl of a solution containing 7 μg/ml propidium iodide (PI) and 0.1% (v/v) Triton X-100 was added. After an incubation period of 1-2 hours at room temperature, fluorescence (FU) was measured using the Enspire Multimode Plate Reader (excitation λ=530 nm, emission k=620 nm) to quantify the amount of attached viable cells.
(§12) Drug effects were expressed in terms of the percentage of the fluorescence signal, obtained by comparison of the mean signal in the treated wells with the mean signal of the untreated controls (expressed by the test-versus-control value, T/C−value [%]):
(§13) [formula] IC values reported reflect the concentration of the test compound that achieves T/C=50%. Calculation was done by 4 parameter non-linear curve fit.

A further assay relates to PRXF PC-3M. The description is as above. It is filed as cell-based. As to conditions: Homo sapiens, 96 h; PRXF PC-3M prostate adeno carcinoma, four days of treatment, T/C=50%; read-out: Absolute IC50. On the procedure:
as §7, §8, §9, §10, §11, §12, §13

A further assay has as its system UXF 1138. The description is as above. It is filed as cell-based. As to conditions: 96 h; UXF 1138 uterine sarcoma, four days of treatment, T/C=50%; read-out: Absolute IC50. On the procedure: as §7, §8, §9, §10, §11, §12, §13
Where [5] appears, read: time to 50% cluster loss changed by more than 25% compared to the Control sample, at the concentrations tested.

For `COc1ccc(C(=O)Nc2sc3c(c2C(=O)O)CCC(C)(C)C3)cc1OC` [Compound #18, 2-[(3,4-Dimethoxybenzoyl)amino]-6,6-dimethyl-5,7-dihydro-4H-benzothiophene-3-carboxylic acid], the pIC50 in assay [1] was 7.30; in the assay with West Nile Virus it was 5.60; in the assay with Dengue it was 5.30; in the assay on Zika, 5.52. Moreover, the “Residual cluster bound at end of experiment (Percentage Absorbance 458 nm at time zero)” value in assay [2] (mitoNEET 20 μM, compound 60 μM, pH 6, at 180 minutes, vehicle control 16%) is listed as 62% (16%); in assay [3] (pH 6, at 500 minutes, vehicle control 3%) it was 42% (3%); in assay [4] (CISD3 gene product 20 μM, compound 60 μM, pH 6, at 180 minutes, vehicle control 11%), 70% (11%). In addition, the “Stabiliser or destabiliser of Fe-S cluster binding by CISD1 Gene Product (mitoNEET)” value in [2] (setting [5]) is on record as “stabilisers”. Moreover, the “Time (in minutes) to achieve 50% loss of bound cluster (Absorbance 458 nm)” value in assay [3] (pH 6, 37° C., run time 500 minutes, vehicle control 310 or 210) is 425 (310) minutes. The “Stabiliser or destabiliser of Fe-S cluster binding by CISD3 Gene Product (Miner2)” value in [4] (setting [5]) is listed as “Stabilisers”.
In the case of `CC1(C)CCc2c(sc(NC(=O)c3ccc(N4CCOCC4)cc3)c2C(=O)O)C1` [Compound #22, 6,6-Dimethyl-2-[(4-morpholinobenzoyl)amino]-5,7-dihydro-4H-benzothiophene-3-carboxylic acid], the pIC50 in [1] was 6.92; with LXFL 1121, 6.26; in the assay on MAXF 401 it was 6.27; in the assay with PRXF PC-3M it was 6.15; in the assay with UXF 1138, 6.48.
